Measured values: ChEMBL document CHEMBL5465560, “Selectivity Literature for EUbOPEN Chemogenomic Library” (2024)

What was measured:
[1] = target: Ribosomal protein S6 kinase alpha-1 (Homo sapiens, UniProt Q15418); assay: Selectivity interaction (KinomeScan (DiscoverX)) EUB0000092b RPS6KA1; conditions: at 10 µM
[2] = target: T1, Tyrosine-protein kinase JAK3 (Homo sapiens) (UniProt P52333); assay: Selectivity interaction (KinomeScan (DiscoverX)) EUB0000045b JAK3; conditions: at 1 µM
T1 sequence (whole entry): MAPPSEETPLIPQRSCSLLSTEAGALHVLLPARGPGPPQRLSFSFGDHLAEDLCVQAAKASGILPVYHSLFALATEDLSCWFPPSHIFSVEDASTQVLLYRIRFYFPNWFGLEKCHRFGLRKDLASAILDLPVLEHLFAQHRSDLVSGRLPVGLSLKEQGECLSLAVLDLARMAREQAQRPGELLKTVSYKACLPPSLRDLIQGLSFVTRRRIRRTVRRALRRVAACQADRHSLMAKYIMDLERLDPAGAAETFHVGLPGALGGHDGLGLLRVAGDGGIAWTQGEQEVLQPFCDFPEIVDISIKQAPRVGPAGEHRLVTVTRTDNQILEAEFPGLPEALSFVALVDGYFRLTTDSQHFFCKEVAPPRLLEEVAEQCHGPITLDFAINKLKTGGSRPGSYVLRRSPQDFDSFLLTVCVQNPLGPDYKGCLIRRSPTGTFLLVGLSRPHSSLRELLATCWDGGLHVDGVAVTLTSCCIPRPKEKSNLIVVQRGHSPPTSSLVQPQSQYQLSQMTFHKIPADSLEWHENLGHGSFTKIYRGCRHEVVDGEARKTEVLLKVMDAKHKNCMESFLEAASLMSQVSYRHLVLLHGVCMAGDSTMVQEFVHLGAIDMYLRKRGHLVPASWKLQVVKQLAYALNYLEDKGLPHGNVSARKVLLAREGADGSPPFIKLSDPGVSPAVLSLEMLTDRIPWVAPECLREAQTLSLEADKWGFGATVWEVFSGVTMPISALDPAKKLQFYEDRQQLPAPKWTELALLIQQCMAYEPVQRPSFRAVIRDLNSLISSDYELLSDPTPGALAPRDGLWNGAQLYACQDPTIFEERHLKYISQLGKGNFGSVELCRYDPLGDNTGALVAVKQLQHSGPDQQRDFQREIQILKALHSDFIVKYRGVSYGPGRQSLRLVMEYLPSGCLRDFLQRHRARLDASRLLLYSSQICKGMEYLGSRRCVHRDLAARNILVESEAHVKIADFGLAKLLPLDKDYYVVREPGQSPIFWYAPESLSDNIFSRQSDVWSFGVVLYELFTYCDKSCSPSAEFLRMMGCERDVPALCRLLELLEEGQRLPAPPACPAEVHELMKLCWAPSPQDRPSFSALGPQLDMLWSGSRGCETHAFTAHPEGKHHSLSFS

[3] = target: Mitogen-activated protein kinase 14 (Homo sapiens, UniProt Q16539); assay: Selectivity interaction (KinomeScan (DiscoverX)) EUB0000045b MAPK14
[4] = target: T2, Cyclin-dependent kinase 11A (Homo sapiens) (UniProt Q9UQ88); assay: Selectivity interaction (KinomeScan (DiscoverX)) EUB0000045b CDK11A; conditions: at 1 µM
T2 sequence (whole entry): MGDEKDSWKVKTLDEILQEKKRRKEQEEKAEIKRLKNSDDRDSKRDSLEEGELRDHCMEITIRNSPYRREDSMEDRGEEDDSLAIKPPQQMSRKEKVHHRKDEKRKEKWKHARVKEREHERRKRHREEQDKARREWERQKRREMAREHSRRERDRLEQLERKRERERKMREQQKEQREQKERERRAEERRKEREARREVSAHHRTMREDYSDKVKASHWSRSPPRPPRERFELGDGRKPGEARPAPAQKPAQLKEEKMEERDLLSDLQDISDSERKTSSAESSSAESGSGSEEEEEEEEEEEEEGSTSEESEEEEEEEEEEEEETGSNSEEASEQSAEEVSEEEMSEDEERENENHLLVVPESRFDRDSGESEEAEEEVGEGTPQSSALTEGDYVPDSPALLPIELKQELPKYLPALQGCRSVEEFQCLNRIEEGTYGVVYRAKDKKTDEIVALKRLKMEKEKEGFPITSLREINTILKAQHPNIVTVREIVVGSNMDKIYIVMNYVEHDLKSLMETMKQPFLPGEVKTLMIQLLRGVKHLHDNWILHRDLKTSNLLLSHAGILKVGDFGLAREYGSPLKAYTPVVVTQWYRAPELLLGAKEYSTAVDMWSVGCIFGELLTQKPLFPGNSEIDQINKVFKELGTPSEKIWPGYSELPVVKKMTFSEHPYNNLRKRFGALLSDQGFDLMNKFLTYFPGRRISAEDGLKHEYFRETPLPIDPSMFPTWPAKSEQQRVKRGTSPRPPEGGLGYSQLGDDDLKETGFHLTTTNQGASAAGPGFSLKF

[5] = target: Cyclin-dependent kinase 16 (Homo sapiens) (UniProt Q00536); assay: Selectivity interaction (KinomeScan (DiscoverX)) EUB0000618a CDK16; conditions: at 10 µM
Activated CDC42 kinase 1 = Activated CDC42 kinase 1 (Homo sapiens, UniProt Q07912); assay: Selectivity interaction (ActivX KiNativ screen (ex vivo kinase selectivity in human PBMCs)) EUB0001619a TNK2; format: cell-based; conditions: PBMC, at 1 µM
[6] = target: Serine/threonine-protein kinase/endoribonuclease IRE1 (Homo sapiens) (UniProt O75460); assay: Selectivity interaction (KinomeScan (DiscoverX)) EUB0000607a ERN1; conditions: at 10 µM
[7] = target: T3, Interleukin-1 receptor-associated kinase 4 (Homo sapiens) (UniProt Q9NWZ3); assay: Selectivity interaction (KinomeScan (DiscoverX)) EUB0000607a IRAK4; conditions: at 10 µM
T3 sequence (whole entry): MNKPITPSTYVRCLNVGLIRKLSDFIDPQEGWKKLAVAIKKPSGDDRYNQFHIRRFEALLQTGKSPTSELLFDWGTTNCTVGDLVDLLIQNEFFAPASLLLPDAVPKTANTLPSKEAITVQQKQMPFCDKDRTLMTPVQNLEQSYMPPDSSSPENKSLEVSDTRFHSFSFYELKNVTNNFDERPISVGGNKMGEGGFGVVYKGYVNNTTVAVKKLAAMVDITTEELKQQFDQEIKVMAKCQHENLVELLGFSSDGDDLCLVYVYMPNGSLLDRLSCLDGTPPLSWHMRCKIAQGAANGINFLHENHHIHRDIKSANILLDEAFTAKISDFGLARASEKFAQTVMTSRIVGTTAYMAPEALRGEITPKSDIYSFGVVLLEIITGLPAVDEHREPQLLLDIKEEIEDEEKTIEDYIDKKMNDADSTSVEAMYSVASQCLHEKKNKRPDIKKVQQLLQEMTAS

Sequence of Mitogen-activated protein kinase 14 (Q16539 whole entry): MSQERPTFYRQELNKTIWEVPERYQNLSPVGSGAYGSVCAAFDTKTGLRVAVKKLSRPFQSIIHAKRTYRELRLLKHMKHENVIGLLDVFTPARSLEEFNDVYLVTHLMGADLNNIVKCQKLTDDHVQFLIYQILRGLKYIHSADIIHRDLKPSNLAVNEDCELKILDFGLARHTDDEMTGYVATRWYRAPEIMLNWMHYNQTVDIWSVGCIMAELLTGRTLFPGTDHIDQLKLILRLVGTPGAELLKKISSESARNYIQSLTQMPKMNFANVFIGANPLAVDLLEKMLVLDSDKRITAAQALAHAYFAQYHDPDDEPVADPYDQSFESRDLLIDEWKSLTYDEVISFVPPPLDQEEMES
Sequence of Serine/threonine-protein kinase/endoribonuclease IRE1 (Homo sapiens) (O75460 19-977 limits assumed): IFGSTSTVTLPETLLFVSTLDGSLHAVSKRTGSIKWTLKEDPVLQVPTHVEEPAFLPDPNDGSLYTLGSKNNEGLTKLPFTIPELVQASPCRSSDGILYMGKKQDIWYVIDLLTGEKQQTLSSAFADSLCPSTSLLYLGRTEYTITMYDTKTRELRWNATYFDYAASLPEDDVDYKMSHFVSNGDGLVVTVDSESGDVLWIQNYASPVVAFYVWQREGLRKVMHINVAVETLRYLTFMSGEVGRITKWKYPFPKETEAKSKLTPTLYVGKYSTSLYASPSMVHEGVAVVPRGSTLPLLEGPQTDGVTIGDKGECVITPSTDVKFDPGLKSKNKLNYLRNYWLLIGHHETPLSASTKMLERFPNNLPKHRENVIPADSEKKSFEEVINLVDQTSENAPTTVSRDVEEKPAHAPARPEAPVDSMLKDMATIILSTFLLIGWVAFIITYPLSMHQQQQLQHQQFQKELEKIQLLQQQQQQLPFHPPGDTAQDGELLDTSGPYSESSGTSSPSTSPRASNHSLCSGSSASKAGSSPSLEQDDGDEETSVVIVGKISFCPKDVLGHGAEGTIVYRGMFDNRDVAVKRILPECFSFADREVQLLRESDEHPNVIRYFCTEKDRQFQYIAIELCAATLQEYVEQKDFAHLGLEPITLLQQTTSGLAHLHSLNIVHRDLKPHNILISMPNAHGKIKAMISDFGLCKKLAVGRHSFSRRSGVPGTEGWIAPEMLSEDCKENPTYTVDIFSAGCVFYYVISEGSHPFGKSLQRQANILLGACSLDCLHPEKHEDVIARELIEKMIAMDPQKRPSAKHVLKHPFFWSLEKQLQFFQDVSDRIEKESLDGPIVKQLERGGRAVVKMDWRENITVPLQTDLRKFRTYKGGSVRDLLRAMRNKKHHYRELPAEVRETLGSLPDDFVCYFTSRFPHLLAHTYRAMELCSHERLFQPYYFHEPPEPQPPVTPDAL
Sequence of Cyclin-dependent kinase 16 (Homo sapiens) (Q00536 whole entry): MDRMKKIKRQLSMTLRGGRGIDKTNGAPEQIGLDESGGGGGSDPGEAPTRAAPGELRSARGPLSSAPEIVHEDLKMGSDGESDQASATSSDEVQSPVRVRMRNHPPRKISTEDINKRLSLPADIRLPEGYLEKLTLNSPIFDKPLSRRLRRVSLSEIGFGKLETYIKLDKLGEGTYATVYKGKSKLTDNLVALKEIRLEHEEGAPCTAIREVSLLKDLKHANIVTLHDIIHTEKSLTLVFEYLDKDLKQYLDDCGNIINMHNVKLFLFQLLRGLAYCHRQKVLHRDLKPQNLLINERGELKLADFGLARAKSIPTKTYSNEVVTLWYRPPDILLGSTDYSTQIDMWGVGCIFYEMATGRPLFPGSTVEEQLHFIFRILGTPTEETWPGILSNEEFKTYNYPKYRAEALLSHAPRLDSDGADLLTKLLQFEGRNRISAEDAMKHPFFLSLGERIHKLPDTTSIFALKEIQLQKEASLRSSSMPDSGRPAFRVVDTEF
Sequence of Ribosomal protein S6 kinase alpha-1 (Q15418 whole entry): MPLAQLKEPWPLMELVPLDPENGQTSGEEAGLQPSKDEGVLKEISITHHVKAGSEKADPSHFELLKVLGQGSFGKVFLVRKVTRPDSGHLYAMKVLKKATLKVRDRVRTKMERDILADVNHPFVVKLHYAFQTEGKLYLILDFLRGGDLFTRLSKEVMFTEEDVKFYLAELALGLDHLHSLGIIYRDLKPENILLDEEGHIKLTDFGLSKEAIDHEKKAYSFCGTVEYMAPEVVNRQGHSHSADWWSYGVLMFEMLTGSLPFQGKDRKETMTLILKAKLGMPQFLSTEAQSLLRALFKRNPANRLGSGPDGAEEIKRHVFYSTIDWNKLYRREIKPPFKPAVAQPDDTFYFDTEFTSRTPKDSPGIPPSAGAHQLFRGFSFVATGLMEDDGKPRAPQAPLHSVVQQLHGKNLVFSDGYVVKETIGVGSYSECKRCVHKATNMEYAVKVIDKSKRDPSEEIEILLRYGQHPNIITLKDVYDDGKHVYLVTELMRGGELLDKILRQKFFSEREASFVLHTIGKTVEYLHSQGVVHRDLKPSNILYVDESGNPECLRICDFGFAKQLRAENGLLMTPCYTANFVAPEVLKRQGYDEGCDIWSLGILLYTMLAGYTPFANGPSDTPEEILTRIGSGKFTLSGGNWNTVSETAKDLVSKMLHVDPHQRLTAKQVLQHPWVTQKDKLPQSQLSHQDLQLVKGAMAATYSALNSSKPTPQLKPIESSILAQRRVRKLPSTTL
Sequence of Activated CDC42 kinase 1 (Q07912 whole entry, looked up): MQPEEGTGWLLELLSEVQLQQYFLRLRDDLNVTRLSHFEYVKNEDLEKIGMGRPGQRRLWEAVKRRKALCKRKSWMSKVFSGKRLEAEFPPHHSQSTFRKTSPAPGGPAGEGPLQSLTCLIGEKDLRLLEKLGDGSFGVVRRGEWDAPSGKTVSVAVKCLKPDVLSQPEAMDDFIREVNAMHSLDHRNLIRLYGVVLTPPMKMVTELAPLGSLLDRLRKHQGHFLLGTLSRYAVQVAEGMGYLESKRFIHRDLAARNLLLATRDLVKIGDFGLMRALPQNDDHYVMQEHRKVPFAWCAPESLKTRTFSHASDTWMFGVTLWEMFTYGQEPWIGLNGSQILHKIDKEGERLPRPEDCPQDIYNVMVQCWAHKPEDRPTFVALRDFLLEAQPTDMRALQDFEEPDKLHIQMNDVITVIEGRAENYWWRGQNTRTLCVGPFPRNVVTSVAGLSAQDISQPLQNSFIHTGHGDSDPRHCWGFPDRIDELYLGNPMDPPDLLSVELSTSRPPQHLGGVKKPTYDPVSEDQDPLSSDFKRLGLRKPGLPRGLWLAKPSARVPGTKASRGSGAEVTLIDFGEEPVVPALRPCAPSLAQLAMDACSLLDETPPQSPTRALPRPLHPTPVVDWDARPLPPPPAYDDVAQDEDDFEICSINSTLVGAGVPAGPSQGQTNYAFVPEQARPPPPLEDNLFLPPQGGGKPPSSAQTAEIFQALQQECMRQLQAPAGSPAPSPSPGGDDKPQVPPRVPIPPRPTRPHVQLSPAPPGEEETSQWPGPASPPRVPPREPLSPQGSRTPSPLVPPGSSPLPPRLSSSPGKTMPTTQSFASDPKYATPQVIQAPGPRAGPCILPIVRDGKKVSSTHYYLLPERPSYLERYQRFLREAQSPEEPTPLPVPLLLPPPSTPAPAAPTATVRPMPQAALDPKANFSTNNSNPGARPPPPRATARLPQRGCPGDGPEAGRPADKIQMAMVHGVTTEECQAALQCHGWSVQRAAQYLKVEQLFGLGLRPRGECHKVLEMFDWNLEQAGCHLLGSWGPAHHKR

## CCC(=O)N1CCN(c2ccc(-n3c(=O)ccc4cnc5ccc(-c6cnc7ccccc7c6)cc5c43)cc2C(F)(F)F)CC1
[1]
  % of control: 68%

## C=CC(=O)Nc1cc(-n2c(=O)ccc3cnc4ccc(-c5ccc(NS(C)(=O)=O)cc5)cc4c32)ccc1C
[2]
  % of control: 6.6%
[3]; at 1 µM
  % of control: 98%
[3]; at 10 µM
  % of control: 100%
[4]
  % of control: 100%

## O[C@H]1CC[C@H](Nc2ncc3nc(Nc4c(F)cc(F)cc4F)n([C@H]4CCOC4)c3n2)CC1
[5]
  % of control: 100%

## N#Cc1cccc(-c2c[nH]c3ncnc(N4CCOCC4)c23)c1
Activated CDC42 kinase 1
  % of inhibition: 8%

## CNC(=O)Nc1ccc(-c2nc(N3CC4CCC(C3)O4)c3cnn(C4CCC5(CC4)OCCO5)c3n2)cc1
[6]
  % of control: 93%
[7]
  % of control: 100%
